{"source": "patent US20240327506A1", "about": "“METHODS AND COMPOSITION FOR THE SELECTIVE ENHANCEMENT OF ADOPTIVE CELL THERAPY” (MaineHealth, priority 2023, published 2024)", "key": {"Jurkat T-cells": {"system": "Jurkat T-cells", "test": "Transwell migration of Jurkat T-cells through collagen type-IV", "assay_type": "cell-based, human", "settings": "peptide, SDF-1 in lower chamber", "procedure": "(§1) FIGS. 4A-4H. […] Briefly, membranes from transwell migration chambers were coated with either native collagen type-IV or denatured collagen type-IV. T-cell variants were incubated with non-specific control peptide CP, or the RGDKGE (SEQ ID NO: 1)-containing collagen peptide (P2) and seed on the coated transwell membranes. T-cells were allowed to migrate in the presence or absence of SDF-1 added to the lower chamber for approximately 1.5 hours. Cell migration was quantified by counting the number of crystal violet stained cells that had migrated through to the underside of the coated membrane. FIG. 4A. Jurkat T-cell migration through denatured collagen type-IV in the presence of non-specific control peptide CP or RGDKGE (SEQ ID NO: 1)-containing collagen peptide P2 with SDF-1. FIG. 4B. Jurkat T-cell migration through native collagen type-IV in the presence of non-specific control peptide CP or RGDKGE (SEQ ID NO: 1)-containing collagen peptide P2 with SDF-1. FIG. 4C. Cem/C1 T-cell migration through denatured collagen type-IV in the presence of non-specific control peptide CP or RGDKGE (SEQ ID NO: 1)-containing collagen peptide P2 with SDF-1. FIG. 4D. […]\n(§2) FIGS. 5A-5F. […] Cell migration was quantified by counting the number of crystal violet stained cells that had migrated through to the underside of the coated membrane. […]"}, "[1]": {"system": "primary CD8+ T-cells from melanoma bearing C57BL/6 mice", "test": "Transwell migration of primary CD8+ T-cells through collagen type-IV", "assay_type": "cell-based, murine", "settings": "peptide", "procedure": "as §1, §2"}, "αvβ3": {"biological_target": "αvβ3 (Homo sapiens, UniProt P05106+P06756)", "sequence (P06756 31-889 limits assumed)": "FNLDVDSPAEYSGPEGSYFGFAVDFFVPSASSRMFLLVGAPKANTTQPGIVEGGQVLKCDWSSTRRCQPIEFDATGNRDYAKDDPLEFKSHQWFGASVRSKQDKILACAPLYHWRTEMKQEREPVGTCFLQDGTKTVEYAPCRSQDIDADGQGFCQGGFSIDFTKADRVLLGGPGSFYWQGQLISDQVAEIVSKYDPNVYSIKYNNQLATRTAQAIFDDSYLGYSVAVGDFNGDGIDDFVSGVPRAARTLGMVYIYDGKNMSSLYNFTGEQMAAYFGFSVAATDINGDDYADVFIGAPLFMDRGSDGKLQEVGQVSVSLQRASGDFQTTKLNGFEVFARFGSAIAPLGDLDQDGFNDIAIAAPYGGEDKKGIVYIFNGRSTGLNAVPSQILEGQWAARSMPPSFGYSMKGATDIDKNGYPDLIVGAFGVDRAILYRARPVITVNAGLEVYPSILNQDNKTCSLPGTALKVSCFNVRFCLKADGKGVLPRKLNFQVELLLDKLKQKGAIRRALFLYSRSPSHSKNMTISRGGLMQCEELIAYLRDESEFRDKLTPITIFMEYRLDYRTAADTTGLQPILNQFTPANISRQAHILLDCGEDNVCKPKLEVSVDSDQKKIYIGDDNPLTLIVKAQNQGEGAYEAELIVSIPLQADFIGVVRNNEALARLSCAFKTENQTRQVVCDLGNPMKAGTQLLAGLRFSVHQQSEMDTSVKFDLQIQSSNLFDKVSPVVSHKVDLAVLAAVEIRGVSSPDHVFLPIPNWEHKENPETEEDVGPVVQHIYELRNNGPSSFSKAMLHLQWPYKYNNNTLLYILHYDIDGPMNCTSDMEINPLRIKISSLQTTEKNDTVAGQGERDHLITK", "sequence (P06756 891-1048 partner limits assumed)": "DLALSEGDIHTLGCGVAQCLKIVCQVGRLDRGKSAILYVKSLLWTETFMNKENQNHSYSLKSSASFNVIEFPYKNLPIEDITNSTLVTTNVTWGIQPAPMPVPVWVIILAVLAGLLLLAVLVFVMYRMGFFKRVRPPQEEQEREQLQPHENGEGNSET", "sequence (P05106 27-788)": "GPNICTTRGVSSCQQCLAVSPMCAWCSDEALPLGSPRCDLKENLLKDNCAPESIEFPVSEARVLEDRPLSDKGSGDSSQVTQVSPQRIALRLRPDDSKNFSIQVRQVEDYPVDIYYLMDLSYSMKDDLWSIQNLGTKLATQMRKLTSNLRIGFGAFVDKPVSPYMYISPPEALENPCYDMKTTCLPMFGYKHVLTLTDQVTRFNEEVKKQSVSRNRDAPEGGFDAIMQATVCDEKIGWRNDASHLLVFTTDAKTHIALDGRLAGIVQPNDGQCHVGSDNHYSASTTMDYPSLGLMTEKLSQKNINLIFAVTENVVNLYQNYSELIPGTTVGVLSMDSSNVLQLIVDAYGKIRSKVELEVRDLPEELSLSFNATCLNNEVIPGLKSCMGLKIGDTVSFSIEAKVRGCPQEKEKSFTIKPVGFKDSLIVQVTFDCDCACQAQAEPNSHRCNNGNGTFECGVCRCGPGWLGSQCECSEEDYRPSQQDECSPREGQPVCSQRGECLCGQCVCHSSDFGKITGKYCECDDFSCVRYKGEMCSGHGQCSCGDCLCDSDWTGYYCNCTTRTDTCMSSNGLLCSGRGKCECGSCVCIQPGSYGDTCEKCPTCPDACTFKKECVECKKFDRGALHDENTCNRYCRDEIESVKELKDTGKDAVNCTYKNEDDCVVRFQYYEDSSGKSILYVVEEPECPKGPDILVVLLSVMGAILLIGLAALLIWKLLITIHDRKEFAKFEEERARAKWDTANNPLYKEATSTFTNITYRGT", "settings": "cited from earlier work"}}, "data": [{"sequence": "QGPRGDKGE (CQGPRGDKGEC; Synthetic: Synthetic collagen RGD containing peptide P-2) [Peptide P2, synthetic version of the soluble RGDKGE-containing collagen peptide]", "values": [{"measurement": "Jurkat T-cell migration", "setting": "Jurkat T-cells; denatured collagen type-IV", "result": "selectively inhibited"}, {"measurement": "Jurkat T-cell migration", "setting": "Jurkat T-cells; native collagen type-IV", "result": "neither the soluble RGDKGE (SEQ ID NO: 1) collagen peptide P2, nor the non-specific control peptide had any significant effect"}, {"measurement": "primary murine CD8+ T-cell migration", "setting": "[1]; denatured collagen type-IV, SDF-1, compared to CP", "result": "selectively inhibited"}, {"measurement": "primary murine CD8+ T-cell migration", "setting": "[1]; native collagen type-IV, SDF-1", "result": "neither the RGDKGE (SEQ ID NO: 1) collagen peptide P2, nor the non-specific control peptide CP had any significant impact"}, {"measurement": "binding to αvβ3", "setting": "αvβ3", "result": "bound"}]}]}
